Assay results taken from US8481582B2, “1,3-dihydroimidazole-2-thione derivatives as inhibitors of dopamine-beta-hydroxylase” (Bial-Portela & CA, S.A., priority 2007, dated 2013).

Key:
[1] = tested on: noradrenaline levels in the heart and parietal cortex; test: Noradrenaline levels in heart and parietal cortex of mice 9 h after oral dosing; type: in vivo, Male NMRI mice; conditions: oral gavage, 9 h post dose, FIG. 1, compared with prior art DβH inhibitors
Method: Male NMRI mice were obtained from Harlan-Interfauna (Spain) and were kept 10 per cage under controlled environmental conditions (12 h light/dark cycle and room temperature 22±1° C.). Food and tap water were allowed ad libitum and experimentation was performed during daylight hours.
At time=0 h, animals were administered with either test compounds (see FIG. 2) at a given dose or vehicle (water) delivered orally via gavage. At 9 h post dose, the animals were sacrificed by decapitation and heart (left atrium and left ventricle) and brain (parietal cortex) were isolated, weighed and stored in a volume of 0.2 M perchloric acid for 12 h at 4° C. in the dark. Post incubation, the resulting supernatants were collected by centrifuge filtration of incubates ([…]/10 min/˜5000 rpm, 4° C.). Supernatants were stored frozen at −80° C. until analysis. Quantification of dopamine and noradrenaline in supernatants was performed by high pressure liquid chromatography with electrochemical detection.

[2] = central as well as peripheral effects; cited from earlier work

SMILES | effect on noradrenaline levels in the heart and parietal cortex (heart vs brain selectivity) [1] | crossing of the blood brain barrier (BBB) [2]
Fc1cc(F)c2c(c1)CC(n1c(CCNCc3ccccc3)c[nH]c1=S)CO2 (single isomer, unassigned) [formula X] | marked selectivity for the heart compared to the brain | –
NCc1c[nH]c(=S)n1[C@H]1CCc2c(F)cc(F)cc2C1 [nepicastat] | – | cross the blood brain barrier
